According to US9624182B2, “Compounds as lysophosphatidic acid receptor antagonists” (Amira Pharmaceuticals, Inc., priority 2009, dated 2017):

What follows are compounds tested against T1, human LPA1 (Homo sapiens, UniProt Q92633) (assay: LPA1 calcium flux assay). Conditions: CHO cells expressing human LPA1, stimulated with 10 nM LPA; read-out: HLPA1 Ca Flux IC50.
T1 construct: the full-length cDNA for human LPA1 was obtained by PCR of the reverse transcription reaction; expressed in transfected cells
Format: cell-based
Description: A 1.1 kb cDNA encoding the human LPA1 receptor was cloned from human lung. Human lung RNA (Clontech Laboratories, Inc. USA) was reverse transcribed using the RETROscript kit (Ambion, Inc.) and the full-length cDNA for human LPA1 was obtained by PCR of the reverse transcription reaction. The nucleotide sequence of the cloned human LPA1 was determined by sequencing and confirmed to be identical to the published human LPA1 sequence (An et al. Biochenm. Biophys. Res. Commun. 231:619 (1997). The cDNA was cloned into the pCDNA5/FRT expression plasmid and transfected in CHO cells using lipofectamine 2000 (Invitrogen Corp., USA). Clones stably expressing human LPA1 were selected using hygromycin and identified as cells that show Ca-influx in response to LPA.
Human LPA1 or LPA3 expressing CHO cells are seeded at 20,000-45,000 cells per well in a 96-well poly-D-lysine coated plate one or two days before the assay. Prior to the assay, the cells are washed once with PBS and then cultured in serum-free media overnight. On the day of the assay, a calcium indicator dye (Calcium 4, Molecular Devices) in assay buffer (HBSS with Ca^2+ and Mg^2+ and containing 20 mM Hepes and 0.3% fatty-acid free human serum albumin) is added to each well and incubation continued for 1 hour at 37° C. 10 μl of test compounds in 2.5% DMSO are added to the cells and incubation continued at room temperature for 30 minutes. Cells are the stimulated by the addition of 10 nM LPA and intracellular Ca^2+ measured using the Flexstation 3 (Molecular Devices). IC50s are determined using Graphpad prism analysis of drug titration curves.

T1 sequence (Q92633 whole entry): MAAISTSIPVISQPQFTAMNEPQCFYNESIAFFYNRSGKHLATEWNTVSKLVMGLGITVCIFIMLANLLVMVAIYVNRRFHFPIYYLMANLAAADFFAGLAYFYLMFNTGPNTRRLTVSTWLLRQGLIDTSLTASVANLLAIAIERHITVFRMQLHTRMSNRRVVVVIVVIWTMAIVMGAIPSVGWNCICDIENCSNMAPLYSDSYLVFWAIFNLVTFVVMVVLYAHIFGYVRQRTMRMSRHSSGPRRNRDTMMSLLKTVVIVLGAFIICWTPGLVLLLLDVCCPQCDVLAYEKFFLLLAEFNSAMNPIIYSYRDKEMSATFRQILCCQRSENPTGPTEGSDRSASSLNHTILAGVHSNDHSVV

Row | IC50 [nM] | Compound
1 | < 300 | Cc1noc(-c2ccc(-c3ccc(C4(C(=O)O)CC4)cc3)cc2)c1C(O)CCCc1ccccc1 (single isomer, unassigned) [Compound 1-156, 1-{4′-[4-(1-Hydroxy-4-phenyl-butyl)-3-methyl-isoxazol-5-yl]-biphenyl-4-yl}-cyclopropanecarboxylic acid]
2 | < 300 | Cc1noc(-c2ccc(-c3ccc(C4(C(=O)O)CC4)cc3)cc2)c1C(O)COCc1ccccc1 (single isomer, unassigned) [Compound 1-198, 1-{4′-[4-(2-Benzyloxy-1-hydroxy-ethyl)-3-methyl-isoxazol-5-yl]-biphenyl-4-yl}-cyclopropanecarboxylic acid]
3 | < 300 | Cc1noc(-c2ccc(-c3ccc(C4(C(=O)O)CC4)cc3)cc2)c1C(O)COCc1ccccc1 (single isomer, unassigned) [Compound 1-199, 1-{4′-[4-(2-Benzyloxy-1-hydroxy-ethyl)-3-methyl-isoxazol-5-yl]-biphenyl-4-yl}-cyclopropanecarboxylic acid]
4 | < 300 | Cc1noc(-c2ccc(-c3ccc(C4CC4C(=O)O)cc3)cc2)c1[C@H](O)COCc1ccccc1 (single isomer, unassigned) [Compound 1-216]
5 | < 300 | Cc1noc(-c2ccc(-c3ccc(C4CC4C(=O)O)cc3)cc2)c1[C@H](O)COCc1ccccc1 (single isomer, unassigned) [Compound 1-217]
6 | < 300 | Cc1noc(-c2ccc(-c3ccc(C4(C(=O)O)CC4)cc3)cc2)c1NC(C)CCc1ccccc1 (single isomer, unassigned) [Compound 1-220, 1-{4′-[3-Methyl-4-(1-methyl-3-phenyl-propylamino)-isoxazol-5-yl]-biphenyl-4-yl}-cyclopropanecarboxylic acid]
7 | < 300 | Cc1noc(-c2ccc(-c3ccc(C4(C(=O)O)CC4)cc3)cc2)c1NC(C)CCc1ccccc1 (single isomer, unassigned) [Compound 1-221, 1-{4′-[3-Methyl-4-(1-methyl-3-phenyl-propylamino)-isoxazol-5-yl]-biphenyl-4-yl}-cyclopropanecarboxylic acid]
8 | 300 to 1000 | Cc1noc(-c2ccc(-c3ccc(C4(C(=O)O)CC4)cc3)cc2)c1C(O)C(F)(F)CCc1ccccc1 (single isomer, unassigned) [Compound 1-254, 1-{4′-[4-(2,2-Difluoro-1-hydroxy-4-phenyl-butyl)-3-methyl-isoxazol-5-yl]-biphenyl-4-yl}-cyclopropanecarboxylic acid]
9 | < 300 | Cc1noc(-c2ccc(-c3ccc(C4(C(=O)O)CC4)cc3)cc2)c1NC(C)C(O)Cc1ccccc1 (single isomer, unassigned) [Compound 1-282, 1-{4′-[4-(2-Hydroxy-1-methyl-3-phenyl-propylamino)-3-methyl-isoxazol-5-yl]-biphenyl-4-yl}-cyclopropanecarboxylic acid]

Continued, compound first:

Row | Compound | IC50 [nM]
10 | Cc1noc(-c2ccc(-c3ccc([C@@H]4C[C@H]4C(=O)O)cc3)cc2)c1/C=C/CCc1ccccc1 (relative stereo) [Compound 1-128, (trans)-2-{4′-[3-Methyl-4-(4-phenyl-but-1-enyl)-isoxazol-5-yl]-biphenyl-4-yl}-cyclopropanecarboxylic acid] | 1000 to 50000
11 | Cc1noc(-c2ccc(-c3ccc([C@H]4C[C@H]4C(=O)O)cc3)cc2)c1/C=C/CCc1ccccc1 (relative stereo) [Compound 1-129, (cis)-2-{4′-[3-Methyl-4-(4-phenyl-but-1-enyl)-isoxazol-5-yl]-biphenyl-4-yl}-cyclopropanecarboxylic acid] | < 300
12 | Cc1noc(-c2ccc(-c3ccc([C@@H]4C[C@H]4C(=O)O)cc3)cc2)c1CSCCc1ccccc1 (relative stereo) [Compound 1-130, (trans)-2-[4′-(3-Methyl-4-phenethylsulfanylmethyl-isoxazol-5-yl)-biphenyl-4-yl]-cyclopropanecarboxylic acid] | 300 to 1000
13 | Cc1noc(-c2ccc(-c3ccc([C@H]4C[C@H]4C(=O)O)cc3)cc2)c1CSCCc1ccccc1 (relative stereo) [Compound 1-131, (cis)-2-[4′-(3-Methyl-4-phenethylsulfanylmethyl-isoxazol-5-yl)-biphenyl-4-yl]-cyclopropanecarboxylic acid] | < 300
14 | Cc1noc(-c2ccc(-c3ccc([C@H]4C[C@H]4C(=O)O)cc3)cc2)c1CC(F)(F)CCc1ccccc1 (relative stereo) [Compound 1-135, (cis)-2-{4′-[4-(2,2-Difluoro-4-phenyl-butyl)-3-methyl-isoxazol-5-yl]-biphenyl-4-yl}-cyclopropanecarboxylic acid] | < 300
15 | Cc1noc(-c2ccc(-c3ccc([C@H]4C[C@H]4C(=O)O)cc3)cc2)c1C(O)CCCc1ccccc1 (relative stereo) [Compound 1-144, (cis)-2-{4′-[4-(1-Hydroxy-4-phenyl-butyl)-3-methyl-isoxazol-5-yl]-biphenyl-4-yl}-cyclopropanecarboxylic acid] | < 300
16 | Cc1noc(-c2ccc(-c3ccc([C@H]4C[C@H]4C(=O)O)cc3)cc2)c1CSCCc1ccccc1 (single isomer, unassigned) [Compound 1-149, (cis)-2-[4′-(3-Methyl-4-phenethylsulfanylmethyl-isoxazol-5-yl)-biphenyl-4-yl]-cyclopropanecarboxylic acid] | < 300
17 | Cc1noc(-c2ccc(-c3ccc([C@H]4C[C@H]4C(=O)O)cc3)cc2)c1CSCCc1ccccc1 (single isomer, unassigned) [Compound 1-150, (cis)-2-[4′-(3-Methyl-4-phenethylsulfanylmethyl-isoxazol-5-yl)-biphenyl-4-yl]-cyclopropanecarboxylic acid] | 1000 to 50000
18 | Cc1noc(-c2ccc(-c3ccc(CC(=O)O)cc3)cc2)c1C(O)CCCc1ccccc1 (single isomer, unassigned) [Compound 1-174, {4′-[4-(1-Hydroxy-4-phenyl-butyl)-3-methyl-isoxazol-5-yl]-biphenyl-4-yl}-acetic acid] | < 300
19 | Cc1noc(-c2ccc(-c3ccc(C4(CC(=O)O)CC4)cc3)cc2)c1C(O)CCCc1ccccc1 (single isomer, unassigned) [Compound 1-176, (1-{4′-[4-(1-Hydroxy-4-phenyl-butyl)-3-methyl-isoxazol-5-yl]-biphenyl-4-yl}-cyclopropyl)-acetic acid] | < 300
20 | Cc1noc(-c2ccc(-c3ccc(C4(CC(=O)O)CC4)cc3)cc2)c1C(O)CCCc1ccccc1 (single isomer, unassigned) [Compound 1-177, (1-{4′-[4-(1-Hydroxy-4-phenyl-butyl)-3-methyl-isoxazol-5-yl]-biphenyl-4-yl}-cyclopropyl)-acetic acid] | < 300
21 | Cc1noc(-c2ccc(-c3ccc(CCC(=O)O)cc3)cc2)c1NC(C)CCc1cccc(C(F)(F)F)c1 (single isomer, unassigned) [Compound 1-234, 3-(4′-{3-Methyl-4-[1-methyl-3-(3-trifluoromethyl-phenyl)-propylamino]-isoxazol-5-yl}-biphenyl-4-yl)-propionic acid] | > 50000
22 | Cc1noc(-c2ccc(-c3ccc(CCC(=O)O)cc3)cc2)c1NC(C)CCc1cccc(C(F)(F)F)c1 (single isomer, unassigned) [Compound 1-235, 3-(4′-{3-Methyl-4-[1-methyl-3-(3-trifluoromethyl-phenyl)-propylamino]-isoxazol-5-yl}-biphenyl-4-yl)-propionic acid] | < 300
23 | Cc1noc(-c2ccc(-c3ccc(C4(C(=O)O)CC4)cc3)cc2)c1NC(C)CCc1cccc(Cl)c1 (single isomer, unassigned) [Compound 1-239, 1-(4′-{4-[3-(3-Chloro-phenyl)-1-methyl-propylamino]-3-methyl-isoxazol-5-yl}-biphenyl-4-yl)-cyclopropanecarboxylic acid] | < 300
24 | Cc1noc(-c2ccc(-c3ccc(C4(C(=O)O)CC4)cc3)cc2)c1NC(C)CCc1cccc(Cl)c1 (single isomer, unassigned) [Compound 1-240, 1-(4′-{4-[3-(3-Chloro-phenyl)-1-methyl-propylamino]-3-methyl-isoxazol-5-yl}-biphenyl-4-yl)-cyclopropanecarboxylic acid] | < 300
25 | Cc1noc(-c2ccc(-c3ccc(C4(C(=O)O)CC4)cc3)cc2)c1/C=C/[S+]([O-])Cc1ccccc1 (single isomer, unassigned) [Compound 1-262, 1-(4′-{3-Methyl-4-[(E)-2-(phenylmethanesulfinyl)-vinyl]-isoxazol-5-yl}-biphenyl-4-yl)-cyclopropanecarboxylic acid] | < 300
26 | Cc1noc(-c2ccc(-c3ccc(C4(C(=O)O)CC4)cc3)cc2)c1/C=C/[S+]([O-])Cc1ccccc1 (single isomer, unassigned) [Compound 1-263, 1-(4′-{3-Methyl-4-[(E)-2-(phenylmethanesulfinyl)-vinyl]-isoxazol-5-yl}-biphenyl-4-yl)-cyclopropanecarboxylic acid] | 1000 to 50000
